In brackets after ≈: the same amount, converted by molar mass. Several values for one entry are separate records, joined by “and”; a condition that tells them apart may be missing. Equal values may be shown once. Entries after “also recorded” stand apart in the source; their conditions may differ.
How the values were obtained:
[1] = system: K. pneumoniae ATCC 29665; experiment: MIC by broth microdilution; format: cell-based, Klebsiella pneumoniae; conditions: Klebsiella pneumoniae, ATCC29665, broth microdilution; read-out: MIC K. pneumoniae ATCC 29665
Procedure: MIC was determined by broth microdilution. Single-colony cultures were grown to exponential phase (OD600 of 0.5) aerobically at 37 °C. In case of strains from the Keio collection, 50 µg ml^−1 kanamycin was supplemented to the media to ascertain a homogeneous population. The bacterial suspensions were diluted 100-fold in CAMHB and 50 µl was added to a twofold serial dilution series of test compounds (50 µl per well) in polypropylene 96-well microtitre plates to reach a volume of 100 µl. The plates were sealed with breathable membranes and incubated overnight at 37 °C with constant shaking (600 r.p.m.).

[2] = system: HepG2; experiment: Cytotoxicity assay (MTT); format: cell-based, human; conditions: for IC50: MTT, 24 h
Procedure: (§1) HepG2 (ATCC HB-8065) and HEK293T (ATCC CRL-3216) cell lines were cultured at 37 °C and 7% CO2 in Dulbecco’s modified Eagle medium (Sigma-Aldrich, D6546) with GlutaMax, penicillin (100 µg ml^−1), streptomycin (100 µg ml^−1) and 10% fetal calf serum. Cells were passaged twice a week by first detaching using 0.05% trypsin in phosphate-buffered saline (PBS) and then diluting to appropriate confluence. Compound cytotoxicity was evaluated using the standard (3-(4,5-dimethylthiazol-2-yl)-2,5-diphenyltetrazolium bromide (MTT) assay protocol (MTT assay protocol for cell viability and proliferation, Merck) with slight changes. HepG2 and HEK293T cells were seeded at a density of 1.5 × 10^4 cells per well in a clear 96-well tissue culture treated plate in a final volume of 100 µl in Dulbecco’s modified Eagle medium, supplemented with fetal bovine serum (1%), GlutaMax and penicillin/streptomycin. Cells were incubated for 24 h at 37 °C, 7% CO2 to allow cells to attach to the plates. […] Incubation was done for 24 h at 37 °C, 7% CO2. After the incubation, MTT was added to each well at a final concentration of 0.40 mg ml^−1. The plates were then incubated for 2 h at 37 °C, 7% CO2. Medium was carefully removed via suction, and purple formazan crystals were resuspended in 100 µl DMSO. Absorbance was read at 570 nm using a Clariostar plate reader with MARS (V4.20). The data were then analysed with GraphPad Prism software. IC50 values were calculated using non-linear fitted curve with variable slope settings, with values adjusted for background (plotted absorbance (ABS)sample = (ABSsample – ABSbackground) / (ABSvehicle – ABSbackground)). Technical triplicates for each condition were used, along with biological duplicates.

[3] = system: HEK293T; experiment: Cytotoxicity assay (MTT); format: cell-based, human; conditions: for MTT data (raw readout): HEK293T
Procedure: as §1

[4] = system: E. coli W3110; experiment: MIC by broth microdilution; format: cell-based, Escherichia coli
Procedure, shortened: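 Broth microdilution in CAMHB: twofold compound series inoculated with 100-fold-diluted bacteria from exponential growth (OD600 0.5, 37 °C); kanamycin 50 µg ml^−1 added for Keio collection strains. Overnight incubation, 37 °C, 600 r.p.m. shaking.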

O=S(=O)(NC[C@@H]1CC[C@H](c2ccc(-c3ccc(F)nc3)cc2)N1)c1cccc2cnccc12 [Compound 96]
MIC [1]: 12.5 µM (≈ 5.78 µg/mL) | MTT data (raw readout) ([2]; HepG2, 0.023 uM, experiment n = 2, technical triplicates): 0.335 and 0.356 and 0.336 | MTT data (raw readout) ([2]; HepG2, 0.068 uM, experiment n = 1, technical triplicates): 0.697 and 0.415 and 0.444 | MTT data (raw readout) ([2]; HepG2, 0.068 uM, experiment n = 2, technical triplicates): 0.314 and 0.274 and 0.280 | MTT data (raw readout) ([2]; HepG2, 0.21 uM, experiment n = 1, technical triplicates): 0.410 and 0.391 and 0.401 | MTT data (raw readout) ([2]; HepG2, 0.21 uM, experiment n = 2, technical triplicates): 0.286 and 0.328 and 0.321 | MTT data (raw readout) ([2]; HepG2, 0.62 uM, experiment n = 1, technical triplicates): 0.318 and 0.339 and 0.325 | MTT data (raw readout) ([2]; HepG2, 0.62 uM, experiment n = 2, technical triplicates): 0.277 and 0.335 and 0.337 | MTT data (raw readout) ([2]; HepG2, 1.85 uM, experiment n = 1, technical triplicates): 0.449 and 0.459 and 0.475 | MTT data (raw readout) ([2]; HepG2, 1.85 uM, experiment n = 2, technical triplicates): 0.324 and 0.290 and 0.321 | MTT data (raw readout) ([2]; HepG2, 5.6 uM, experiment n = 1, technical triplicates): 0.376 and 0.380 and 0.428 | MTT data (raw readout) ([2]; HepG2, 5.6 uM, experiment n = 2, technical triplicates): 0.305 and 0.314 and 0.321 | MTT data (raw readout) ([2]; HepG2, 16.7 uM, experiment n = 1, technical triplicates): 0.356 and 0.341 and 0.324 | MTT data (raw readout) ([2]; HepG2, 16.7 uM, experiment n = 2, technical triplicates): 0.281 and 0.283 and 0.288 | MTT data (raw readout) ([2]; HepG2, 50 uM, experiment n = 1, technical triplicates): 0.302 and 0.347 and 0.370 | MTT data (raw readout) ([2]; HepG2, 50 uM, experiment n = 2, technical triplicates): 0.208 and 0.219 and 0.229 | IC50 ([2]; Homo sapiens, HepG2, 24 h): > 100 µM | IC50 [2]: > 50 µM | MTT data (raw readout) ([3]; 0.023 uM, experiment n = 1, technical triplicates): 1.310 and 1.426 and 1.382 | MTT data (raw readout) ([3]; 0.023 uM, experiment n = 2, technical triplicates): 1.005 and 1.055 and 0.974 | MTT data (raw readout) ([3]; 0.068 uM, experiment n = 1, technical triplicates): 1.261 and 1.196 and 1.228 | MTT data (raw readout) ([3]; 0.068 uM, experiment n = 2, technical triplicates): 1.060 and 1.105 and 1.114 | MTT data (raw readout) ([3]; 0.21 uM, experiment n = 1, technical triplicates): 1.460 and 1.332 and 1.292 | MTT data (raw readout) ([3]; 0.21 uM, experiment n = 2, technical triplicates): 0.944 and 1.021 and 1.022 | MTT data (raw readout) ([3]; 0.62 uM, experiment n = 1, technical triplicates): 1.285 and 1.264 and 1.255 | MTT data (raw readout) ([3]; 0.62 uM, experiment n = 2, technical triplicates): 0.998 and 0.945 and 0.948 | MTT data (raw readout) ([3]; 1.85 uM, experiment n = 1, technical triplicates): 1.253 and 1.307 and 1.121 | MTT data (raw readout) ([3]; 1.85 uM, experiment n = 2, technical triplicates): 0.889 and 0.884 and 0.825 | MTT data (raw readout) ([3]; 5.6 uM, experiment n = 1, technical triplicates): 0.992 and 0.906 and 1.276 | MTT data (raw readout) ([3]; 5.6 uM, experiment n = 2, technical triplicates): 0.770 and 0.750 and 0.744 | MTT data (raw readout) ([3]; 16.7 uM, experiment n = 1, technical triplicates): 0.263 and 0.250 and 0.238 | MTT data (raw readout) ([3]; 16.7 uM, experiment n = 2, technical triplicates): 0.552 and 0.449 and 0.479 | MTT data (raw readout) ([3]; 50 uM, experiment n = 1, technical triplicates): 0.081 and 0.067 and 0.062 | MTT data (raw readout) ([3]; 50 uM, experiment n = 2, technical triplicates): 0.360 and 0.319 and 0.325 | IC50 ([3]; Homo sapiens, HEK-293T, 24 h, MTT): 22 µM | MIC ([4]; Escherichia coli, W3110, WT, broth microdilution, read-out: MIC E. coli W3110): 3.1 µM (≈ 1.43 µg/mL) | antimicrobial activity ([4]; relative to parent compound): twofold increase in potency; also recorded: active

From article PMC11374673, “Discovery of isoquinoline sulfonamides as allosteric gyrase inhibitors with activity against fluoroquinolone-resistant bacteria” (Nature Chemistry, 2024)
